From ChEMBL document CHEMBL5303304, “EUbOPEN Chemogenomics Library - IncuCyte” (2023)

Columns and labels:
Assay type in all cases: toxicity, cell-based
U2OS = assay: Incucyte cell viability with U2OS; conditions: human, 10 µM, compound concentration 10 uM
HEK-293T = assay: Incucyte cell viability with HEK293T; conditions: human, 10 µM, compound concentration 10 uM
Fibroblast = assay: Incucyte cell viability with human fibroblast; conditions: 10 µM, compound concentration 10 uM
Also: unitless GR value; below 1 slowed growth and below 0 cell loss.

SMILES	Growth Rate (U2OS; 0 h, replicate number 1)	Growth Rate (U2OS; 6 h, replicate number 1)	Growth Rate (U2OS; 6 h, replicate number 2)	Growth Rate (U2OS; 12 h, replicate number 1)	Growth Rate (U2OS; 12 h, replicate number 2)	Growth Rate (U2OS; 24 h, replicate number 1)	Growth Rate (HEK-293T; 0 h, replicate number 1)	Growth Rate (HEK-293T; 6 h, replicate number 2)	Growth Rate (HEK-293T; 18 h, replicate number 2)	Growth Rate (HEK-293T; 24 h, replicate number 1)	Growth Rate (Fibroblast; 0 h, replicate number 1)	Growth Rate (Fibroblast; 12 h, replicate number 1)	Growth Rate (Fibroblast; 12 h, replicate number 2)	Growth Rate (Fibroblast; 18 h, replicate number 1)	Growth Rate (Fibroblast; 18 h, replicate number 2)	Growth Rate (Fibroblast; 24 h, replicate number 1)	Growth Rate (Fibroblast; 24 h, replicate number 2)	Growth Rate (U2OS; 18 h, replicate number 1)	Growth Rate (U2OS; 18 h, replicate number 2)	Growth Rate (U2OS; 24 h, replicate number 2)	further results
COc1cc(-c2cn(C)c(=O)c3cnccc23)cc(OC)c1CN(C)C	0.83	0.87	0.61	0.86	0.85	0.97	0.56	0.89	0.89	0.92	0.17	0.48	0.15	0.56	0.6	0.58	0.85				Growth Rate (HEK-293T; 6 h, replicate number 1): 0.78; Growth Rate (HEK-293T; 18 h, replicate number 1): 0.85; Growth Rate (Fibroblast; 6 h, replicate number 1): 0.2; Growth Rate (Fibroblast; 6 h, replicate number 2): -0.34
O=C1Nc2ccc(I)cc2/C1=C/c1cc(Br)c(O)c(Br)c1	-0.98						-0.98	0.9	0.88		-1										Growth Rate (U2OS; 0 h, replicate number 2): 0.76; Growth Rate (HEK-293T; 0 h, replicate number 2): 0.38; Growth Rate (HEK-293T; 12 h, replicate number 2): 0.98; Growth Rate (HEK-293T; 24 h, replicate number 2): 0.86
CCOc1ccc(S(=O)(=O)Nc2ccc(Cl)cc2C#Cc2cnc(C(=O)[O-])cc2OC)c2ncccc12.[K+]	-0.87		0.58	0.95	-0.91		0.28	0.66	0.87	0.98	-0.78		0.49	1	0.43	0.99	0.53	0.94	-0.85	0.81	Growth Rate (U2OS; 0 h, replicate number 2): 0.5; Growth Rate (HEK-293T; 0 h, replicate number 2): -0.2; Growth Rate (HEK-293T; 12 h, replicate number 2): 0.97; Growth Rate (HEK-293T; 24 h, replicate number 2): 0.87; Growth Rate (Fibroblast; 6 h, replicate number 2): 0.49
COc1ccccc1N1CCN(c2ncnc3c2cnn3-c2ccccc2)CC1	0.75			0.47	0.93	0.25		0.19				0.42	0.94	0.39		0.48	0.91	0.13	1	0.85	Growth Rate (HEK-293T; 6 h, replicate number 1): 0.67; Growth Rate (HEK-293T; 12 h, replicate number 1): 0.99; Growth Rate (HEK-293T; 12 h, replicate number 2): 0.98; Growth Rate (Fibroblast; 0 h, replicate number 2): 0; Growth Rate (Fibroblast; 6 h, replicate number 1): -0.03
COc1ccc(-n2c(C)c([N+](=O)[O-])c3ccc(O)cc32)cc1					0.65	0.91	0.26							-0.35				0.88	0.61	0.77	Growth Rate (HEK-293T; 0 h, replicate number 2): -0.46; Growth Rate (Fibroblast; 0 h, replicate number 2): 0.13
Cc1ccc(C(=O)Nc2cc(N3CCN(C)CC3)cc(C(F)(F)F)c2)cc1-n1cc(-c2cnn(C)c2C)nn1.Cl	0.94	0.35	0.77	0.71	0.58	0.82	-0.85					0.43	0.19	0.22	0.15	0.44	0.18	0.92	0.73	0.66	Growth Rate (Fibroblast; 0 h, replicate number 2): 0.61; Growth Rate (Fibroblast; 6 h, replicate number 1): 0.66; Growth Rate (Fibroblast; 6 h, replicate number 2): -0.05
CC(=O)O[C@H]1C(=O)[C@@]2(C)[C@H]([C@H](OC(=O)c3ccccc3)[C@]3(O)C[C@H](OC(=O)[C@H](O)[C@@H](NC(=O)c4ccccc4)c4ccccc4)C(C)=C1C3(C)C)[C@]1(OC(C)=O)CO[C@@H]1C[C@@H]2O [PACLITAXEL]	-0.26	-0.32	-0.43	-0.21	-0.45	-0.07		-0.69	-0.22	0.05	-1	-0.7	-0.57	-0.54	-0.67	-0.39	-0.34	-0.26	-0.43	-0.18	Growth Rate (U2OS; 0 h, replicate number 2): -0.23; Growth Rate (HEK-293T; 6 h, replicate number 1): -0.33; Growth Rate (HEK-293T; 12 h, replicate number 1): -0.21; Growth Rate (HEK-293T; 12 h, replicate number 2): -0.41; Growth Rate (HEK-293T; 18 h, replicate number 1): -0.08; Growth Rate (HEK-293T; 24 h, replicate number 2): -0.02; Growth Rate (Fibroblast; 6 h, replicate number 1): -0.64; Growth Rate (Fibroblast; 6 h, replicate number 2): -0.99
N[C@@H](CC(=O)O)Cn1nnc(-c2ccc(Oc3ncc(Cl)cc3F)cc2)n1		0.62					0.53	0.12	0.72	0.95			0.4		0.74	0.95	0.76				Growth Rate (HEK-293T; 6 h, replicate number 1): 0.85; Growth Rate (HEK-293T; 12 h, replicate number 1): 0.94; Growth Rate (HEK-293T; 12 h, replicate number 2): 0.58; Growth Rate (HEK-293T; 24 h, replicate number 2): 0.83
COc1cc(C(=O)NC2CCN(C)CC2)ccc1Nc1ncc2c(n1)N(C1CCCC1)CC(F)(F)C(=O)N2C	-0.99	0.46	0.18	0.23	-0.13	0.2		-0.29	-0.2	0.26		0.51	0.72	0.36	0.45	0.28	0.42	0.12	-0.08	-0.03	Growth Rate (U2OS; 0 h, replicate number 2): 0.71; Growth Rate (HEK-293T; 6 h, replicate number 1): 0.85; Growth Rate (HEK-293T; 12 h, replicate number 1): 0.86; Growth Rate (HEK-293T; 12 h, replicate number 2): -0.06; Growth Rate (HEK-293T; 18 h, replicate number 1): 0.53; Growth Rate (HEK-293T; 24 h, replicate number 2): -0.23
CCN1C(=O)/C(=C(\NC2CCN(C)CC2)c2ccc3c(c2)OCO3)c2cc(C(C)=O)ccc21	0.46	0.59	0.61		0.81	0.89		0.16	0.77	0.71	-1	0.32	0.27	0.7	0.5	0.64	0.76			0.95	Growth Rate (U2OS; 0 h, replicate number 2): -0.34; Growth Rate (HEK-293T; 6 h, replicate number 1): 0.44; Growth Rate (HEK-293T; 12 h, replicate number 1): 0.64; Growth Rate (HEK-293T; 12 h, replicate number 2): 0.78; Growth Rate (HEK-293T; 18 h, replicate number 1): 0.63; Growth Rate (Fibroblast; 6 h, replicate number 1): 0.42; Growth Rate (Fibroblast; 6 h, replicate number 2): 0.53
COCCOCn1c(S(C)(=O)=O)nc2c1c(=O)n(C)c(=O)n2C	0.81	0.11		0.55		0.76	0.35		0.92	0.86	-1	0	0.03	0.05	0.24	0.45	0.7	0.93			Growth Rate (HEK-293T; 0 h, replicate number 2): 0.7; Growth Rate (HEK-293T; 18 h, replicate number 1): 0.74; Growth Rate (HEK-293T; 24 h, replicate number 2): 0.9; Growth Rate (Fibroblast; 6 h, replicate number 1): -0.48; Growth Rate (Fibroblast; 6 h, replicate number 2): -0.97
CNc1ncc2cc(-c3ccc(-c4cccc(C)n4)cc3Cl)c(=O)n(C[C@H]3OC[C@H](N)CO3)c2n1	0.31		0.37		0.83		-0.96				0.26	0.36	0.19	0.37	0.14	0.41	0.16		0.77	0.53	Growth Rate (Fibroblast; 0 h, replicate number 2): -0.44; Growth Rate (Fibroblast; 6 h, replicate number 2): 0.69
S=c1[nH]nc(-c2cccs2)n1-c1ccccc1	0.53		0.93		0.8			0.97	0.87	0.9	0.04	-0.72		-0.25		0.01		0.95	0.87		Growth Rate (HEK-293T; 0 h, replicate number 2): 0.81; Growth Rate (HEK-293T; 6 h, replicate number 1): 0.53; Growth Rate (HEK-293T; 12 h, replicate number 1): 0.58; Growth Rate (HEK-293T; 12 h, replicate number 2): 0.73; Growth Rate (HEK-293T; 18 h, replicate number 1): 0.91; Growth Rate (HEK-293T; 24 h, replicate number 2): 0.83; Growth Rate (Fibroblast; 0 h, replicate number 2): -0.79; Growth Rate (Fibroblast; 6 h, replicate number 2): -0.3
Nc1c(CC(=O)O)cccc1C(=O)c1ccc(Br)cc1 [BROMFENAC]	0.27	0.2		0.79	0.95	0.74	0.43			0.98								0.86	0.92	0.95	Growth Rate (HEK-293T; 0 h, replicate number 2): -0.53; Growth Rate (Fibroblast; 0 h, replicate number 2): -0.66
